# Test system: Haemonchus contortus
# Assay: Method B: screening against Haemonchus contortus in vivo on Mongolian jirds (Meriones unguiculatus)
# Conditions: oral gavage, dose as low as 1 or 10 mg/kg, necropsy 3 days after treatment, vs placebo control group
# Procedure: Method B: Screening Method to Test Activity of Compounds Against Haemonchus contortus in Vivo on Mongolian Jirds (Meriones unguiculatus). Mongolian jirds, at least five weeks old, were immunosuppressed and artificially infected with ca. 1000 ensheathed Haemonchus contortus third instar larvae. Six days after infection, the jirds were treated by oral gavage with the test compounds, dissolved in a mixture of 2 parts DMSO and 1 part polyethylene glycol (PEG400), at doses of 100 mg/kg and 10 mg/kg. Jirds treated only with the placebo (2 parts DMSO and 1 part PEG400) served as controls. On day 9 (3 days after treatment) the jirds were euthanized and necropsied for recovery of parasites from the stomach. Efficacy was calculated as the average % reduction in the number of worms in each test group compared with the average number of worms from the control group. […] Compound number 1, provided at least 95% reduction in nematode infestation at a dose as low as 1 or 10 mg/kg.
row,SMILES,reduction in nematode infestation
1,"CC(Cn1nc2c(Cl)cc(Cl)c(Cl)c2n1)(NC(=O)c1ccc(OC(F)(F)F)cc1)C(N)=S (stereo not drawn) [Compound 1, N-[1-Methyl-1-thiocarbamoyl-2-(4,5,7-trichloro-2H-benzotriazol-2-yl)-ethyl]-4-trifluoromethoxybenzamide]",at least 95%

# Test system: Haemonchus contortus
# Assay: Method A: screening of compounds against Haemonchus contortus L1 larvae in microtitre plate (development to L3)
# Conditions: 96 h, test concentration 0.01 ppm, 4 days assessment, 27° C., read-out: motility inhibition
# Procedure: Method A: Screening Method to Test Activity of Compounds Against Haemonchus contortus. Twenty L1 Haemonchus contortus larvae were added to wells of a microtitre plate containing a nutrient medium and the test compound in DMSO. The microtitre plate was then held at 27° C. where the L1 larvae were allowed to develop. An analysis was conducted at 4 days to determine successful development to the L3 stage. Larvae exposed to DMSO and no test compound served as controls. Compounds numbers 3, 4, 6 and 8 gave at least 90% motility inhibition at a test concentration of 0.15 ppm at the 4 days assessment. Compounds numbers 1, 2, 5 and 7 gave at least 90% motility inhibition at a test concentration of 0.01 ppm at the 4 days assessment.
row,SMILES,inhibition at 0.01 ppm [%]
1,"CC(Cn1nc2c(Cl)cc(Cl)c(Cl)c2n1)(NC(=O)c1ccc(OC(F)(F)F)cc1)C(N)=S (stereo not drawn) [Compound 1, N-[1-Methyl-1-thiocarbamoyl-2-(4,5,7-trichloro-2H-benzotriazol-2-yl)-ethyl]-4-trifluoromethoxybenzamide]",≥ 90
2,CC(Cn1nc2c(Cl)cc(Cl)c(Cl)c2n1)(NC(=O)c1ccc(SC(F)(F)F)cc1)C(N)=S (stereo not drawn) [Compound 2],≥ 90
3,CC(COc1cc(C#N)ccc1C(F)(F)F)(NC(=O)c1ccc(SC(F)(F)F)cc1)C(N)=S (stereo not drawn) [Compound 5],≥ 90
4,"CC(COc1cc(C#N)ccc1C(F)(F)F)(NC(=O)c1ccc(OC(F)(F)F)cc1)C(N)=S (stereo not drawn) [Compound 7, N-[2-(5-Cyano-2-trifluoromethylphenoxy)-1-methyl-1-thiocarbamoyl-ethyl]-4-trifluoromethoxybenzamide]",≥ 90

# Same assay, conditions: 96 h, test concentration 0.15 ppm, 4 days assessment, 27° C., read-out: motility inhibition
row,SMILES,inhibition at 0.15 ppm [%]
1,"CC(COc1ccc(C#N)cc1C(F)(F)F)(NC(=O)c1ccc(OC(F)(F)F)cc1)C(N)=S (stereo not drawn) [Compound 3, N-[2-(4-Cyano-2-trifluoromethylphenoxy)-1-methyl-1-thiocarbamoyl-ethyl]-4-trifluoromethoxybenzamide]",≥ 90
2,"CC(COc1ccc(C(N)=S)cc1C(F)(F)F)(NC(=O)c1ccc(OC(F)(F)F)cc1)C(N)=S (stereo not drawn) [Compound 4, N-[1-Methyl-1-thiocarbamoyl-2-(4-thiocarbamoyl-2-trifluoromethylphenoxy)-ethyl]-4-trifluoromethoxybenzamide]",≥ 90
3,CC(COc1cc(C(N)=S)ccc1C(F)(F)F)(NC(=O)c1ccc(SC(F)(F)F)cc1)C(N)=S (stereo not drawn) [Compound 6],≥ 90
4,CC(COc1cc(C(N)=S)ccc1C(F)(F)F)(NC(=O)c1ccc(OC(F)(F)F)cc1)C(N)=S (stereo not drawn) [Compound 8],≥ 90

# Source: patent publication US7964621B2, “Thioamide compounds, method of making and method of using thereof” (Merial Limited, priority 2008, dated 2011)
